Test [1] concerns non-septic forms of pulmonary hypertension. As to conditions: infusion rates of 10 to 40 about g/kg/min, human studies; cited from earlier work.
The test system of a further test is elevated PVR. The experiment in a line: GBS-induced pulmonary hypertension, pilot experiments. In kind it is in vivo, rats. As to the method:
Experimental Protocol is as follows. Fifteen rats were randomly assigned to 1 of 3 groups. Measurements taken at each time point included arterial and mixed venous blood gases, inert gas determinations in samples of arterial blood, mixed venous blood and expired gas, and TNF and TxB2 assays, mean P sa′ mean PAP, P pcw′ and CO from arterial blood, and PVR (PVR=PAP−P pcw/CO), and systemic vascular resistance (SVR=P sa/CO) were calculated at each time point.
After baseline measurements, all rats received continuous infusion of GBS (1.25×10^9 cfu/kg/hr) for 5 hours. Repeat measurements were made at 0.5, 4.0, 4.5, and 5.0 hr of GBS infusion. After 4 hours of GBS infusion, treated animals received amr (amr 10 and amr 20) (Inocor lactate, Sterling Drug Co., New York, N.Y.); control animals (control) received the amr carrier solution containing lactic acid and sodium metabisulfite. Amr 10 rats (n=5; 11.2: t 4.1 days; 3.0: t 0.5 kg) received an amr bolus (8 mg/kg) followed by a continuous infusion of amr diluted with normal saline (10 about g/kg/min) for 1 hour. Amr 20 rats (n=5; 9.2 t 2.2 days; 2.2: t 0.4 kg) received the same amr bolus (8 mg/kg) followed by a continuous infusion of amr diluted with normal saline (20 about g/kg/min) for 1 hour. […]

Another test has as its target TNF-α (Homo sapiens, UniProt P01375). As to conditions: Fichtlscherer (2001); cited from earlier work.

Consider two compounds from patent publication US20030170223A1, “Pulmonary vasodilator surfactant compositions and method of use” (Board of Trustees of Michigan State University, priority 2002, published 2003).

Chain of TNF-α (P01375 77-233 limits assumed): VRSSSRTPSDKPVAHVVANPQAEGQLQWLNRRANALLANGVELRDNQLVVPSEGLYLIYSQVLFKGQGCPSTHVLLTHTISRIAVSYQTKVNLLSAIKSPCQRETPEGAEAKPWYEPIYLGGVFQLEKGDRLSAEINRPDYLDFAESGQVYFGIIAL

For `CC(O)C(=O)O.Nc1cc(-c2ccncc2)c[nH]c1=O` [amr], in test [1], the “reversal of non-septic pulmonary hypertension” value is “successful in reversing”. Also, the “effect on elevated PVR” value in the test with elevated PVR is reported as “acute reduction in elevated PVR”.

ETANERCEPT: the “systemic endothelial vasodilator capacity” value at TNF-α is recorded as “profoundly improves”.
